Target: IGF-1R (Homo sapiens (Human), UniProt P08069)
Assay: Example B-1: IGF-1R Assay (PC3 cells, IGF1 stimulation, AlphaLISA)
Format: cell-based
Details: 200 ng/mL IGF1 stimulation, read-out: Biological Activity against IGF-1R IC50
Protocol: 50K PC3 cells were seeded on day 1 in 50 μL of media in 96-well plate and incubated overnight at 37° C., 5% CO2. On day 2, all cells were expected to be at 80-90% confluency. Cells were starved for two hours by changing the media to 90 μL of EMEM serum-free media and incubated for 2 hours. Next, cells were treated with 10 μL of 10× concentrated and 3× serially diluted compounds for two hours. It makes 1× of compounds in 100 μL media. This was followed by stimulation of cells with 11×IGF1 for 30 min in 10 μL of serum-free EMEM media at the final concentration of 200 ng/mL.
The media was removed and replaced by 50 μL of 1× lysis buffer from the AlphaLISA kit (with 1× of cOmplete™ protease inhibitor). The plates were sealed, and cells were allowed to lyse for 10 min in the shaker before storing the plate at −20° C. until used. The AlphaLISA assay with processed cell lysates were performed as described in the protocol. Briefly, 10 μL of the undiluted sample were loaded to 384 well Optiplates and 5 μL of the acceptor mix (as described in the AlphaLISA kit) was added to each well. The plates were sealed and briefly vortexed followed by the incubation at RT for 3 hours. In the dark, 5 μL of donor mix was added to each well. All plates were sealed and stored at RT overnight. The plates were read in EnVision reader using standard AlphaLISA settings.
Compound activity was analyzed using CBIS data analysis suite (ChemInnovation, CA). Percentage inhibition was calculated using the following formula: % Inhibition=100%×(1−(mean RLU of test sample−mean RLU of vehicle control)/(mean RLU of EC80 control−mean RLU of vehicle control)). The activity for representative examples of the invention is shown in the following table, wherein A: IC50≤500 nM; B: 500 nM<IC50≤2 μM; C: 2 μM<IC50≤10 μM; D: IC50>10 μM.

Sequence of IGF-1R (P08069 31-1367): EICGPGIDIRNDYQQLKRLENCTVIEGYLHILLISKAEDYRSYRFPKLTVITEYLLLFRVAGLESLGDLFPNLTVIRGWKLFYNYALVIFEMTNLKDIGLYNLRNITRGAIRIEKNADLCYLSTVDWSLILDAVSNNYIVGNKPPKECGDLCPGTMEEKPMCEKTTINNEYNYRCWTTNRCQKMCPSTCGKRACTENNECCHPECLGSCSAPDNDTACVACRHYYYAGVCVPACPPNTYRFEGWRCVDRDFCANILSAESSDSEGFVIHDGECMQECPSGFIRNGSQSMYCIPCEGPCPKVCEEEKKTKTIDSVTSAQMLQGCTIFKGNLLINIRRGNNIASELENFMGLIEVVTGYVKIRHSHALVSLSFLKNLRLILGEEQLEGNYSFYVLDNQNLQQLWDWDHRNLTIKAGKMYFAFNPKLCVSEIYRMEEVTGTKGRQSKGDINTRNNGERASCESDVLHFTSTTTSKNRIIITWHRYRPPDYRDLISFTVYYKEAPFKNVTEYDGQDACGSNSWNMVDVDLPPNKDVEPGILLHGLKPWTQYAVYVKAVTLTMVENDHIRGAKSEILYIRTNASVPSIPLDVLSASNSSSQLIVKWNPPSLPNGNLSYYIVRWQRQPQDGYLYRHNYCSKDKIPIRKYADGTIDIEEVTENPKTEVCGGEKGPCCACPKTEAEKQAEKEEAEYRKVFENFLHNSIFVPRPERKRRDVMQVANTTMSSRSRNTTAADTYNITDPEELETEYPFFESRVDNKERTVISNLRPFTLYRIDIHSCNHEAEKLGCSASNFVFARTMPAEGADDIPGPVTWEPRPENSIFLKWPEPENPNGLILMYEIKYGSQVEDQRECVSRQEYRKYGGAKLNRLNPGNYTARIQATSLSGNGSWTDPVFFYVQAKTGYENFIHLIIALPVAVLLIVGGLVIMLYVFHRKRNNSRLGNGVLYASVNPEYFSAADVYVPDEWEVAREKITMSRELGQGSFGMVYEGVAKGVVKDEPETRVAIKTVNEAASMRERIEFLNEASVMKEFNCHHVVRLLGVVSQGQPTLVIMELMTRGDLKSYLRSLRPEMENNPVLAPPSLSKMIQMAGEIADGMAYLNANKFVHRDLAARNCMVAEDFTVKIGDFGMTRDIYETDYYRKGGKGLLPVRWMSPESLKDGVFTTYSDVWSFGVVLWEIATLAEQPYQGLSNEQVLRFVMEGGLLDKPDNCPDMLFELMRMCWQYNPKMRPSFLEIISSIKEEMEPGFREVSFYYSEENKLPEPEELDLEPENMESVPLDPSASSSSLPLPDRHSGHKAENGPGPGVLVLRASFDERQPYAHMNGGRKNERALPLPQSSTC

Compound	IC50
7-(2-{3-methoxy-4-[(1s,3s)-3- (dimethylamino)cyclobutoxy] phenylamino}-4- pyrimidinylamino)-2,2- dimethyl-2,4-dihydro-1-oxa- 4,5-diaza-3-naphthalenone [Compound 288]	500 to 2000 nM
COc1cc(Nc2nccc(Nc3cnc4ccccc4c3)n2)ccc1N1CCC(N2CCN(C)CC2)CC1 [Compound 2, 2-{3-methoxy-4-[4-(4-methyl-1-piperazinyl)-1-piperidyl]phenylamino}-4-(3-quinolylamino)pyrimidine]	≤ 500 nM
COc1cc(Nc2nccc(Nc3ccc4c(n3)CC3CCC4N3C)n2)ccc1OCCCN1CCCCC1 (centres unmarked) [Compound 4, 2-[3-methoxy-4-(3-piperidinopropoxy)phenylamino]-4-(12-methyl-6,12-diazatricyclo[7.2.1.0^2,7]dodeca-2,4,6-trien-5-ylamino)pyrimidine]	2000 to 10000 nM
COc1cc(Nc2nccc(Nc3cnc4c(C(F)(F)F)cccc4c3)n2)ccc1OCCCN1CCCCC1 [Compound 5, 2-[3-methoxy-4-(3-piperidinopropoxy)phenylamino]-4-[8-(trifluoromethyl)-3-quinolylamino]pyrimidine]	≤ 500 nM
COc1cc(Nc2nccc(Nc3cnc4ccc(OC(F)(F)F)cc4c3)n2)ccc1OCCCN1CCCCC1 [Compound 6, 2-[3-methoxy-4-(3-piperidinopropoxy)phenylamino]-4-(6-trifluoromethoxy-3-quinolylamino)pyrimidine]	≤ 500 nM
COc1cc(Nc2nccc(Nc3cnc4c(OC(F)(F)F)cccc4c3)n2)ccc1O[C@H]1C[C@H](N(C)C)C1 [Compound 7, 2-{3-methoxy-4-[(1r,3r)-3-(dimethylamino)cyclobutoxy]phenylamino}-4-(8-trifluoromethoxy-3-quinolylamino)pyrimidine]	≤ 500 nM
COc1cc(Nc2nccc(Nc3cnc4cc(OC(F)(F)F)ccc4c3)n2)ccc1O[C@H]1C[C@H](N(C)C)C1 [Compound 8, 2-{3-methoxy-4-[(1r,3r)-3-(dimethylamino)cyclobutoxy]phenylamino}-4-(7-trifluoromethoxy-3-quinolylamino)pyrimidine]	≤ 500 nM
COc1cc(Nc2nccc(Nc3cnc4cc(NC(C)=O)ccc4c3)n2)ccc1O[C@H]1C[C@@H](N(C)C)C1 [Compound 9, N-[3-(2-{3-methoxy-4-[(1s,3s)-3-(dimethylamino)cyclobutoxy]phenylamino}-4-pyrimidinylamino)-7-quinolyl]acetamide]	≤ 500 nM
COc1cc(Nc2nccc(Nc3cc4ccccc4[nH]c3=O)n2)cnc1O[C@H]1C[C@@H](N(C)C)C1 [Compound 11, 3-(2-{5-methoxy-6-[(1s,3s)-3-(dimethylamino)cyclobutoxy]-3-pyridylamino}-4-pyrimidinylamino)-2(1H)-quinolinone]	≤ 500 nM
COc1cc(Nc2nccc(Nc3cnc4cc(N)ccc4c3)n2)ccc1O[C@H]1C[C@@H](N(C)C)C1 [Compound 12, 4-(7-amino-3-quinolylamino)-2-{3-methoxy-4-[(1s,3s)-3-(dimethylamino)cyclobutoxy]phenylamino}pyrimidine]	≤ 500 nM
COc1cc(Nc2nccc(Nc3cnc4ccccc4c3)n2)ccc1OCCCN1CCOCC1 [Compound 14, 2-[3-methoxy-4-(3-morpholinopropoxy)phenylamino]-4-(3-quinolylamino)pyrimidine]	≤ 500 nM
COc1cc(Nc2nccc(Nc3cnc4ccccc4c3)n2)ccc1O[C@H]1CC[C@H](N2CCOCC2)CC1 [Compound 16, 2-{3-methoxy-4-[(1r,4r)-4-morpholinocyclohexyloxy]phenylamino}-4-(3-quinolylamino)pyrimidine]	≤ 500 nM
COc1cc(Nc2nccc(Nc3cnc4ccccc4c3)n2)ccc1O[C@H]1CC[C@@H](N2CCOCC2)CC1 [Compound 18, 2-{3-methoxy-4-[(1s,4s)-4-morpholinocyclohexyloxy]phenylamino}-4-(3-quinolylamino)pyrimidine]	≤ 500 nM
COc1cc(O[C@H]2C[C@@H](N(C)C)C2)ccc1Nc1nccc(Nc2cnc3ccccc3c2)n1 [Compound 19, 2-{2-methoxy-4-[(1s,3s)-3-(dimethylamino)cyclobutoxy]phenylamino}-4-(3-quinolylamino)pyrimidine]	≤ 500 nM
COc1cc(OCCCN2CCCCC2)ccc1Nc1nccc(Nc2cnc3ccccc3c2)n1 [Compound 20, 2-[2-methoxy-4-(3-piperidinopropoxy)phenylamino]-4-(3-quinolylamino)pyrimidine]	≤ 500 nM
COc1cc(Nc2nccc(Nc3cnc4ccccc4c3)n2)ccc1O[C@H]1C[C@H](N2CCOCC2)C1 [Compound 22, 2-{3-methoxy-4-[(1r,3r)-3-morpholinocyclobutoxy]phenylamino}-4-(3-quinolylamino)pyrimidine]	≤ 500 nM
COc1cc(Nc2nccc(Nc3cnc4c(c3)OCCO4)n2)ccc1O[C@H]1C[C@H](N2CCOCC2)C1 [Compound 23, 4-(2,3-dihydro-1,4-dioxa-5-aza-7-naphthylamino)-2-{3-methoxy-4-[(1r,3r)-3-morpholinocyclobutoxy]phenylamino}pyrimidine]	≤ 500 nM
COc1cc(Nc2nccc(Nc3cnc4ccccc4c3)n2)ccc1O[C@H]1C[C@H](N2CCS(=O)(=O)CC2)C1 [Compound 24]	≤ 500 nM
COc1cc(Nc2nccc(Nc3cnc4ccc(Cl)cc4c3)n2)ccc1O[C@H]1C[C@H](N2CCS(=O)(=O)CC2)C1 [Compound 25, 4-[(1r,3r)-3-{4-[4-(6-chloro-3-quinolylamino)-2-pyrimidinylamino]-2-methoxyphenoxy}cyclobutyl]-1λ^6,4-thiazinane-1,1-dione]	≤ 500 nM
c1ccc2ncc(Nc3ccnc(Nc4ccc(O[C@H]5C[C@H](N6CCOCC6)C5)cc4)n3)cc2c1 [Compound 26, 4-(3-quinolylamino)-2-{p-[(1r,3r)-3-morpholinocyclobutoxy]phenylamino}pyrimidine]	≤ 500 nM
CN(C)[C@H]1C[C@H](Oc2ccc(Nc3nccc(Nc4cnc5ccccc5c4)n3)cc2)C1 [Compound 27, 4-(3-quinolylamino)-2-{p-[(1r,3r)-3-(dimethylamino)cyclobutoxy]phenylamino}pyrimidine]	≤ 500 nM
c1ccc2ncc(Nc3ccnc(Nc4ccc(O[C@H]5C[C@@H](N6CCOCC6)C5)cc4)n3)cc2c1 [Compound 28, 4-(3-quinolylamino)-2-{p-[(1s,3s)-3-morpholinocyclobutoxy]phenylamino}pyrimidine]	≤ 500 nM
CN1[C@@H]2COC[C@H]1C[C@@H](Oc1ccc(Nc3nccc(Nc4cnc5ccccc5c4)n3)cc1)C2 [Compound 29, 2-(p-{(1R,5S,7r)-9-methyl-3-oxa-9-azabicyclo[3.3.1]non-7-yloxy}phenylamino)-4-(3-quinolylamino)pyrimidine]	≤ 500 nM
CN1[C@@H]2COC[C@H]1C[C@H](Oc1ccc(Nc3nccc(Nc4cnc5ccccc5c4)n3)cc1)C2 [Compound 30, 2-(p-{(1R,5S,7s)-9-methyl-3-oxa-9-azabicyclo[3.3.1]non-7-yloxy}phenylamino)-4-(3-quinolylamino)pyrimidine]	≤ 500 nM
c1ccc2ncc(Nc3ccnc(Nc4ccc(OCCCN5CCOCC5)nc4)n3)cc2c1 [Compound 31, 2-[6-(3-morpholinopropoxy)-3-pyridylamino]-4-(3-quinolylamino)pyrimidine]	≤ 500 nM
COc1cc(Nc2nccc(Nc3cnc4ccc(Br)cc4c3)n2)ccc1O[C@H]1CC[C@@H](N2CCOCC2)CC1 [Compound 32, 4-(6-bromo-3-quinolylamino)-2-{3-methoxy-4-[(1s,4s)-4-morpholinocyclohexyloxy]phenylamino}pyrimidine]	≤ 500 nM
